Data on six molecules can be found in patent US20230014151A1, “COMBINATION ANTIVIRAL THERAPY FOR MEASLES” (The Trustees of Columbia University in the City of New York, priority 2019, published 2023).

The structures appear in SMILES notation. Like-named read-outs stand apart in the source and are kept apart here. Square brackets hold non-standard residues; d marks the D form. Peptide text beside a SMILES is read from it. * marks the point of attachment. X4 = CC(C)CCC[C@@H](C)[C@H]1CC[C@H]2[C@@H]3CC=C4C[C@@H](OC(=O)CCOCCOCCOCCOCCNC(=O)C*)CC[C@]4(C)[C@H]3CC[C@]12C; X3 = CC(C)CCC[C@@H](C)[C@H]1CC[C@H]2[C@@H]3CC=C4C[C@@H](OC(=O)C*)CC[C@]4(C)[C@H]3CC[C@]12C; Cbz = O=C(OCc1ccccc1)*

This test concerns the target viral glycoproteins (H and F); Nectin-4 (Measles virus, UniProt Q786F3). The test can be described thus: beta-galactosidase complementation-based fusion assay, Nectin-4 target cells.
Setting [1] is: IC50, Table 2 (salient peptides), Nectin-4 target cells.
The mark [2] stands for this setting: Nectin4 IC50, Table 3 (extended version).

Sequence of viral glycoproteins (H and F); Nectin-4 (Q786F3 24-112): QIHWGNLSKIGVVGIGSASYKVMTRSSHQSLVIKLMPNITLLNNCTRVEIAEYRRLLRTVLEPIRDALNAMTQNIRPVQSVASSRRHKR

For orientation: IC90 means the concentration needed for an effect of 90%. For orientation: IC50 means the midpoint of a concentration-inhibition curve. A higher IC50 goes with weaker potency. As to `CC(C)CCC[C@@H](C)[C@H]1CC[C@H]2[C@@H]3CC=C4C[C@@H](OC(=O)CSC[C@H](NC(=O)CNC(=O)[C@H](CO)NC(=O)CNC(=O)[C@H](CO)NC(=O)CNC(=O)CNC(=O)[C@H](Cc5ccccc5)NC(=O)[C@@H](Cc5ccccc5)NC(=O)OCc5ccccc5)C(=O)O)CC[C@]4(C)[C@H]3CC[C@]12C` [FIP-chol] (Cbz-[dF]FGGSGSGC(X3)-OH), the IC90 was 7.615 ± 0.013 µM. The same molecule yielded an IC50 under setting [1] of 4 ± 1.08 µM. Also, under setting [2], the IC50 was more than 10 µM. For the same molecule, the 90% effect concentration (IC90) (read-out: Nectin4 IC90) is more than 10 µM.
In turn, `CC[C@H](C)[C@H](NC(=O)[C@H](C)NC(=O)[C@H](CC(N)=O)NC(=O)CNC(=O)[C@H](CC(C)C)NC(=O)[C@H](CC(N)=O)NC(=O)[C@@H](NC(=O)CNC(=O)[C@@H](NC(=O)[C@H](CC(=O)O)NC(=O)[C@H](CC(C)C)NC(=O)[C@H](CCCNC(=N)N)NC(=O)[C@H](CCC(=O)O)NC(=O)[C@H](CC(C)C)NC(=O)[C@H](CO)NC(=O)[C@@H](NC(=O)[C@@H]1CCCN1C(=O)[C@@H]1CCCN1C(C)=O)[C@@H](C)CC)C(C)C)[C@@H](C)O)C(=O)N[C@@H](C)C(=O)N[C@@H](CCCCN)C(=O)N[C@@H](CC(C)C)C(=O)N[C@@H](CCC(=O)O)C(=O)N[C@@H](CC(=O)O)C(=O)N[C@@H](C)C(=O)N[C@@H](CCCCN)C(=O)N[C@@H](CCC(=O)O)C(=O)N[C@@H](CC(C)C)C(=O)N[C@@H](CC(C)C)C(=O)N[C@@H](CCC(=O)O)C(=O)N[C@@H](CO)C(=O)N[C@@H](CO)C(=O)N[C@@H](CC(=O)O)C(=O)N[C@@H](CCC(N)=O)C(=O)N[C@H](C(=O)N[C@@H](CC(C)C)C(=O)N[C@@H](CCCNC(=N)N)C(=O)NCC(=O)N[C@@H](CO)C(=O)NCC(=O)N[C@@H](CO)C(=O)NCC(=O)N[C@@H](CS)C(=O)O)[C@@H](C)CC` [HRC450-485] returned an IC90 of more than 10 µM. Moreover, the IC50 under setting [1] is more than 10 µM. Further, the IC50 under setting [2] was more than 10 µM. The IC90 (read-out: Nectin4 IC90) was more than 10 µM.
Take `CC[C@H](C)[C@H](NC(=O)[C@H](C)NC(=O)[C@H](CC(N)=O)NC(=O)CNC(=O)[C@H](CC(C)C)NC(=O)[C@H](CC(N)=O)NC(=O)[C@@H](NC(=O)CNC(=O)[C@@H](NC(=O)[C@H](CC(=O)O)NC(=O)[C@H](CC(C)C)NC(=O)[C@H](CCCNC(=N)N)NC(=O)[C@H](CCC(=O)O)NC(=O)[C@H](CC(C)C)NC(=O)[C@H](CO)NC(=O)[C@@H](NC(=O)[C@@H]1CCCN1C(=O)[C@@H]1CCCN1C(=O)CNC(=O)[C@H](CO)NC(=O)CNC(=O)[C@H](CO)NC(=O)CNC(=O)CNC(=O)[C@H](Cc1ccccc1)NC(=O)[C@@H](Cc1ccccc1)NC(=O)OCc1ccccc1)[C@@H](C)CC)C(C)C)[C@@H](C)O)C(=O)N[C@@H](C)C(=O)N[C@@H](CCCCN)C(=O)N[C@@H](CC(C)C)C(=O)N[C@@H](CCC(=O)O)C(=O)N[C@@H](CC(=O)O)C(=O)N[C@@H](C)C(=O)N[C@@H](CCCCN)C(=O)N[C@@H](CCC(=O)O)C(=O)N[C@@H](CC(C)C)C(=O)N[C@@H](CC(C)C)C(=O)N[C@@H](CCC(=O)O)C(=O)N[C@@H](CO)C(=O)N[C@@H](CO)C(=O)N[C@@H](CC(=O)O)C(=O)N[C@@H](CCC(N)=O)C(=O)N[C@H](C(=O)N[C@@H](CC(C)C)C(=O)N[C@@H](CCCNC(=N)N)C(=O)NCC(=O)N[C@@H](CO)C(=O)NCC(=O)N[C@@H](CO)C(=O)NCC(=O)N[C@@H](CS)C(=O)O)[C@@H](C)CC` [FIP-HRC450-485]: the IC90 is more than 10 µM. This molecule gave a concentration for half-maximal inhibition (IC50) under setting [1] of 4.24 ± 0.812 µM. Under setting [2], this molecule displayed an IC50 of 4.24 ± 0.812 µM. The IC90 (read-out: Nectin4 IC90) was more than 10 µM.
Turning to `CC[C@H](C)[C@H](NC(=O)[C@H](C)NC(=O)[C@H](CC(N)=O)NC(=O)CNC(=O)[C@H](CC(C)C)NC(=O)[C@H](CC(N)=O)NC(=O)[C@@H](NC(=O)CNC(=O)[C@@H](NC(=O)[C@H](CC(=O)O)NC(=O)[C@H](CC(C)C)NC(=O)[C@H](CCCNC(=N)N)NC(=O)[C@H](CCC(=O)O)NC(=O)[C@H](CC(C)C)NC(=O)[C@H](CO)NC(=O)[C@@H](NC(=O)[C@@H]1CCCN1C(=O)[C@@H]1CCCN1C(C)=O)[C@@H](C)CC)C(C)C)[C@@H](C)O)C(=O)N[C@@H](C)C(=O)N[C@@H](CCCCN)C(=O)N[C@@H](CC(C)C)C(=O)N[C@@H](CCC(=O)O)C(=O)N[C@@H](CC(=O)O)C(=O)N[C@@H](C)C(=O)N[C@@H](CCCCN)C(=O)N[C@@H](CCC(=O)O)C(=O)N[C@@H](CC(C)C)C(=O)N[C@@H](CC(C)C)C(=O)N[C@@H](CCC(=O)O)C(=O)N[C@@H](CO)C(=O)N[C@@H](CO)C(=O)N[C@@H](CC(=O)O)C(=O)N[C@@H](CCC(N)=O)C(=O)N[C@H](C(=O)N[C@@H](CC(C)C)C(=O)N[C@@H](CCCNC(=N)N)C(=O)NCC(=O)N[C@@H](CO)C(=O)NCC(=O)N[C@@H](CO)C(=O)NCC(=O)N[C@@H](CSCC(=O)NCCOCCOCCOCCOCCC(=O)O[C@H]1CC[C@@]2(C)C(=CC[C@H]3[C@@H]4CC[C@H]([C@H](C)CCCC(C)C)[C@@]4(C)CC[C@@H]32)C1)C(=O)O)[C@@H](C)CC` [HRC450-485-peg4-chol], the concentration for an effect of 90% (IC90) is 0.856 ± 0.0786 µM. For the same molecule, the IC90 (read-out: Nectin4 IC90) is 0.856 ± 0.0786 µM.
As to `CC(C)CCC[C@@H](C)[C@H]1CC[C@H]2[C@@H]3CC=C4C[C@@H](OC(=O)CCOCCOCCOCCOCCNC(=O)CSC[C@H](NC(=O)CNC(=O)[C@H](CO)NC(=O)CNC(=O)[C@H](CO)NC(=O)CNC(=O)CNC(=O)[C@H](Cc5ccccc5)NC(=O)[C@@H](Cc5ccccc5)NC(=O)OCc5ccccc5)C(=O)O)CC[C@]4(C)[C@H]3CC[C@]12C` [FIP-peg4-chol] (Cbz-[dF]FGGSGSGC(X4)-OH), the 90% effect level (IC90) was put at 7.615 ± 0.013 µM. Where the note is “read-out: Nectin4 IC90”, the IC90 was 7.615 ± 0.013 µM.
For `CC[C@H](C)[C@H](NC(=O)[C@H](C)NC(=O)[C@H](CC(N)=O)NC(=O)CNC(=O)[C@H](CC(C)C)NC(=O)[C@H](CC(N)=O)NC(=O)[C@@H](NC(=O)CNC(=O)[C@@H](NC(=O)[C@H](CC(=O)O)NC(=O)[C@H](CC(C)C)NC(=O)[C@H](CCCNC(=N)N)NC(=O)[C@H](CCC(=O)O)NC(=O)[C@H](CC(C)C)NC(=O)[C@H](CO)NC(=O)[C@@H](NC(=O)[C@@H]1CCCN1C(=O)[C@@H]1CCCN1C(=O)CNC(=O)[C@H](CO)NC(=O)CNC(=O)[C@H](CO)NC(=O)CNC(=O)CNC(=O)[C@H](Cc1ccccc1)NC(=O)[C@@H](Cc1ccccc1)NC(=O)OCc1ccccc1)[C@@H](C)CC)C(C)C)[C@@H](C)O)C(=O)N[C@@H](C)C(=O)N[C@@H](CCCCN)C(=O)N[C@@H](CC(C)C)C(=O)N[C@@H](CCC(=O)O)C(=O)N[C@@H](CC(=O)O)C(=O)N[C@@H](C)C(=O)N[C@@H](CCCCN)C(=O)N[C@@H](CCC(=O)O)C(=O)N[C@@H](CC(C)C)C(=O)N[C@@H](CC(C)C)C(=O)N[C@@H](CCC(=O)O)C(=O)N[C@@H](CO)C(=O)N[C@@H](CO)C(=O)N[C@@H](CC(=O)O)C(=O)N[C@@H](CCC(N)=O)C(=O)N[C@H](C(=O)N[C@@H](CC(C)C)C(=O)N[C@@H](CCCNC(=N)N)C(=O)N[C@@H](CS)C(=O)O)[C@@H](C)CC` [FIP-HRC450-485 (no GSGSG)], the IC50 under setting [2] is 2.77 ± 1.64 µM. Besides, the IC90 (read-out: Nectin4 IC90) came out at 6.37 ± 4.18 µM.
